The text below walks through data of the NIST ThermoML archive (doi:10.1021/je100861u).

For series [1] the following is noted: Liquid; Distillation.
The nature of series [2]: refractive index (Na D-line) (dimensionless). The following applies: 293.15 K; 101.33 kPa; Liquid; Standard Abbe refractometry.

± gives the expanded uncertainty stated by the source.

The refractive index is the speed of light in vacuum divided by its phase velocity in the sample. As to `CC(=O)C(C)O` (centres undefined) [2,3-butanolone], the Normal boiling temperature in series [1] came to 148.38 ± 0.54 °C. For the same compound, the refractive index in series [2] was found to be 1.4198 ± 0.0008.

Turning to `CCCCOC(C)=O` [butyl ethanoate], the Normal boiling temperature in series [1] was determined as 125.96 ± 0.5 °C. For the same compound, the refractive index in series [2] is 1.3941 ± 0.0007.
